Laboratory results published in patent publication US10774051B2, “6-membered heterocyclic derivatives and pharmaceutical composition comprising the same” (Shionogi & Co., Ltd., priority 2015, dated 2020).
pIC50: −log10 of the molar value. Like-named read-outs stand apart in the source and are kept apart here.

Key:
[1] = molecular target: human P2X7 receptor (Homo sapiens, UniProt Q99572, R270H/Y155H); assay: Evaluation of human P2X7 receptor inhibitory activity (Yo-Pro uptake, BzATP stimulation, FLIPR TETRA); format: cell-based
Procedure, shortened: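 1321N1 cells stably expressing human P2X7 (T606C/G952A SNP variant), in HBSS buffer pH 7.4-7.5 with Yo-Pro, stimulated with BzATP; compound added 8 min after agonist. Fluorescence followed for 20 min on FLIPR; max-minus-min change gave % inhibition, IC50 by logistic fit.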

[2] = system: partial sciatic nerve ligation model in rats; assay: Analgesic effect in a Seltzer model, evaluation (1): mechanical allodynia, von Frey filaments; format: in vivo; settings: rat, read-out: analgesic effect, % reversal of mechanical allodynia
From the text: Preparation of Partial Sciatic Nerve Ligation Model in Rats
Rats are anaesthetized using isoflurane/O2 inhalation anaesthesia. After induction of anesthesia, the left thigh is shaved. An incision was made in the skin just below the hip bone. The muscle was bluntly dissected to expose the sciatic nerve. About one half (½) of the sciatic nerve thickness is tightly ligated with a nylon thread and the wound is closed. The right thigh was used as a sham-operated control. The right thigh underwent an identical procedure with the left hind limb, however, the sciatic nerve was not manipulated or ligated.
Two weeks after nerve ligation, the effect on mechanical allodynia was assessed using a series of von Frey filaments. For habituation, the rats were placed into a plastic cage on a wire mesh bottom. Von Frey filaments (0.4 to 26 g) were applied to the plantar surface of the rat hind paws from the wire mesh side, and the value of the filament pressure at which the paw was withdrawn was used as a pain threshold. The measurement of mechanical sensitivity of the right and left hind paws was performed to obtain predose mechanical sensitivity. The rats showing the threshold change from 0.6 to 2 g (in nerve ligated side) and 8 to 15 g (in sham operated side) were used in the experiments. On the day before the experiment, the rats were evaluated with a series of von Frey filaments to familiarize them with the test procedure. The adopted animal was administrated with the compounds of the present invention. The compounds of the present invention were homogenized with mortar and pestle and suspended or diluted in 0.5% Methyl Cellulose to prepare 0.03-100 mg/2 mL/kg suspension and orally administered to rat using a syringe attached with a sonde. Post-dose mechanical sensitivities of the right and left hind paws were measured at approximately 1 to 7 hours after drug administration. Percent reversal of mechanical allodynia for each rat was calculated using the following formula. The analgesic effects of the compounds were compared.

[3] = 1321N1 cells stably expressing human P2X7 receptor, BzATP stimulation, Yo-Pro uptake, read-out: IC50 (antagonistic activity for the human P2X7 receptor)
[4] = 3 hours after oral administration of 3 mg/kg
[5] = 5 hours after oral administration of 3 mg/kg
[6] = antagonistic activity for the human P2X7 receptor, read-out: IC50

| SMILES | pIC50 [1, 3] | pIC50 [1, 6] | further results |
| --- | --- | --- | --- |
| COc1cn(Cc2ccc(F)c(Cl)c2)c(Nc2cc3sc(C)nc3cc2C)nc1=O [Compound I-0005] | 8.30 | – | inhibition in vivo at 3 mg/kg [2, 4]: 45% |
| COc1cn(Cc2ccc(F)c(Cl)c2)c(Nc2cc(C)c(Cl)cc2C)nc1=O [Compound I-0006] | 8.22 | – | inhibition in vivo at 3 mg/kg [2, 4]: 49% |
| COc1ccc(C)c(Nc2nc(=O)c(OC)cn2Cc2ccc(F)c(Cl)c2)c1 [Compound I-0354] | 8.52 | – | inhibition in vivo at 3 mg/kg [2, 4]: 51% |
| COc1cn(Cc2ccc(F)c(Cl)c2)c(Nc2ccc(OC(F)F)cc2C)nc1=O [Compound I-0365] | 7.74 | – | inhibition in vivo at 3 mg/kg [2, 5]: 55% |
| COc1cc(C)c(Nc2nc(=O)c(OC)cn2Cc2cc(F)cc(F)c2)cc1C [Compound I-0372] | 8.30 | – | inhibition in vivo at 3 mg/kg [2, 4]: 64% |
| CCOc1ccc(Nc2nc(=O)c(OC)cn2Cc2cc(F)c(F)c(F)c2)c(C)c1 [Compound I-0702] | 7.96 | – | inhibition in vivo at 3 mg/kg [2, 5]: 58% |
| COc1cn(Cc2cc(F)c(F)c(F)c2)c(Nc2ccc(OC(F)F)cc2C)nc1=O [Compound I-0707] | 7.85 | – | inhibition in vivo at 3 mg/kg ([2]; 7 hours after oral administration of 3 mg/kg): 53% |
| COc1ccc(Nc2nc(=O)c(F)cn2Cc2cc(F)cc(F)c2)c(C)c1 [Compound I-0842] | 8.30 | – | inhibition in vivo at 3 mg/kg [2, 5]: 69% |
| COc1cn(Cc2cc(F)c(F)c(F)c2)c(Nc2cc3c(cc2C)COC3)nc1=O [Compound I-0910] | 7.85 | – | inhibition in vivo at 3 mg/kg [2, 5]: 45% |
| COc1ccc(Nc2nc(=O)c(F)cn2Cc2cc(F)c(F)c(F)c2)c(C)c1 [Compound I-1040] | 8.22 | – | inhibition in vivo at 3 mg/kg [2, 4]: 49% |
| Cc1cc2c(cc1Nc1nc(=O)c(F)cn1Cc1cc(F)c(F)c(F)c1)COC2 [Compound I-1041] | 8.05 | – | inhibition in vivo at 3 mg/kg [2, 5]: 48% |
| COc1cc(Nc2nc(=O)c(F)cn2Cc2cc(F)cc(F)c2)c(C)cc1F [Compound I-1050] | 8.00 | – | inhibition in vivo at 3 mg/kg [2, 5]: 46% |
| COc1ccc(C)c(Nc2nc(=O)c(F)cn2Cc2cc(F)c(F)c(F)c2)c1 [Compound I-1066] | 8.52 | – | inhibition in vivo at 3 mg/kg [2, 5]: 63% |
| O=C1CCCc2c(Nc3nc(=O)c(F)cn3Cc3cc(F)c(F)c(F)c3)cccc21 [Compound I-1108] | 8.40 | – | inhibition in vivo at 3 mg/kg [2, 5]: 42% |
| Cc1cc(Nc2nc(=O)c(F)cn2Cc2cc(F)c(F)c(F)c2)c(C)nc1OC(F)F [Compound I-1232] | 8.22 | – | inhibition in vivo at 3 mg/kg [2, 5]: 55% |
| COc1cc(C)c(Nc2nc(=O)c(C)nn2Cc2cc(F)cc(F)c2)cc1OC [Compound I-1261] | 7.80 | – | inhibition in vivo at 3 mg/kg [2, 5]: 54% |
| COc1ccc(Nc2nc(=O)cnn2Cc2cc(F)cc(F)c2)c(C)c1 [Compound I-1271] | – | > 8.00 | – |
| COc1ccc(Nc2nc(=O)cnn2Cc2ccc(F)c(F)c2)c(C)c1 [Compound I-1272] | – | > 8.00 | – |
| COc1ccc(Nc2nc(=O)cnn2Cc2ccc(F)cc2)c(C)c1 [Compound I-1273] | – | > 8.00 | – |
| COc1ccc(Nc2nc(=O)cnn2Cc2cccc(F)c2)c(C)c1 [Compound I-1274] | – | > 8.00 | – |
| COc1ccc(Nc2nc(=O)cnn2Cc2ccccc2F)c(C)c1 [Compound I-1275] | – | 6.30 to 7.00 | – |
| COc1ccc(Nc2nc(=O)cnn2Cc2ccccc2)c(C)c1 [Compound I-1276] | – | 7.00 to 8.00 | – |

| SMILES | pIC50 [1, 3] | pIC50 [1, 6] | further results |
| --- | --- | --- | --- |
| COc1ccc(Nc2nc(=O)c(C)nn2Cc2cc(F)c(F)c(F)c2)c(C)c1 [Compound I-1277] | – | > 8.00 | – |
| COc1cc(C)c(Nc2nc(=O)cnn2Cc2cc(F)c(F)c(F)c2)cc1Cl [Compound I-1278] | – | > 8.00 | – |
| COc1cc(Nc2nc(=O)cnn2Cc2cc(F)c(F)c(F)c2)c(C)cc1Cl [Compound I-1279] | – | > 8.00 | – |
| Cc1cc2c(cc1Nc1nc(=O)cnn1Cc1cc(F)c(F)c(F)c1)COC2 [Compound I-1280] | – | > 8.00 | – |
| COc1cc(C)c(Nc2nc(=O)cnn2Cc2cc(F)c(F)c(F)c2)cc1OC [Compound I-1281] | 8.40 | – | inhibition in vivo at 3 mg/kg [2, 5]: 48% |
| COc1ccc(C)c(Nc2nc(=O)cnn2Cc2cc(F)c(F)c(F)c2)c1 [Compound I-1282] | – | > 8.00 | – |
| COc1ccc(Nc2nc(=O)cnn2Cc2cc(F)c(F)c(F)c2)c(C)c1 [Compound I-1283] | – | > 8.00 | – |
| Cc1nc2cc(C)c(Nc3nc(=O)cnn3Cc3cc(F)c(F)c(F)c3)cc2s1 [Compound I-1284] | – | > 8.00 | – |
| COc1cn(Cc2cc(F)c(F)c(F)c2)c(Nc2cc3sc(C)nc3cc2C)nc1=NC#N [Compound I-1285] | 7.57 | – | – |
| Cc1nc2cc(C)c(Nc3nc(=NC#N)c(F)cn3Cc3cc(F)c(F)c(F)c3)cc2s1 [Compound I-1286] | – | > 8.00 | – |
| COc1cc(C)c(Nc2nc(=NC#N)c(OC)cn2Cc2cc(F)c(F)c(F)c2)cc1OC [Compound I-1287] | – | 7.00 to 8.00 | – |
| COc1cc(C)c(Nc2nc(=NC#N)c(F)cn2Cc2cc(F)c(F)c(F)c2)cc1OC [Compound I-1288] | – | 7.00 to 8.00 | – |
| CN=c1nc(Nc2cc(C)ccc2C)n(Cc2cc(F)c(F)c(F)c2)cc1F [Compound I-1289] | – | 6.30 to 7.00 | – |
| Cc1ccc(C)c(Nc2nc(=NO)c(F)cn2Cc2cc(F)c(F)c(F)c2)c1 [Compound I-1290] | 7.68 | – | – |
| CON=c1nc(Nc2cc3sc(C)nc3cc2C)n(Cc2cc(F)c(F)c(F)c2)cc1F [Compound I-1291] | – | 6.30 to 7.00 | – |
| CON=c1nc(Nc2cc(C)ccc2C)n(Cc2cc(F)c(F)c(F)c2)cc1F [Compound I-1292] | – | 6.30 to 7.00 | – |
| Cc1ccc(C)c(Nc2nc(=NC#N)c(F)cn2Cc2cc(F)c(F)c(F)c2)c1 [Compound I-1293] | – | > 8.00 | – |
| Cc1ccc(C)c(Nc2nc(=N)c(F)cn2Cc2cc(F)c(F)c(F)c2)c1 [Compound I-1294] | – | 7.00 to 8.00 | – |
| Cc1ccc(F)cc1Nc1nc(=O)c(F)cn1Cc1cc(F)c(F)c(F)c1 [Compound I-1295] | 7.89 | – | inhibition in vivo at 3 mg/kg [2, 4]: 51% |
| COc1ccc(F)c(Nc2nc(=O)c(F)cn2Cc2cc(F)c(F)c(F)c2)c1 [Compound I-1296] | 7.96 | – | inhibition in vivo at 3 mg/kg [2, 4]: 59% |
| COc1ccc(Nc2nc(=O)c(F)cn2Cc2cc(F)cc(F)c2)c(C)c1F [Compound I-1297] | 7.80 | – | inhibition in vivo at 3 mg/kg [2, 5]: 49% |
